Test results published in US20250179032A1, “HETEROCYCLIC INHIBITORS OF GLUT9 FOR TREATMENT OF DISEASE” (HORIZON THERAPEUTICS IRELAND DAC, priority 2022, published 2025).
Where two headings read alike, the source gives them in different places.

Molecular target: T1, H. sapiens SLC2A9 variant 2 (GLUT9B) (Homo sapiens, UniProt Q9NRM0)
T1 sequence (Q9NRM0 1-511 isoform Q9NRM0-2): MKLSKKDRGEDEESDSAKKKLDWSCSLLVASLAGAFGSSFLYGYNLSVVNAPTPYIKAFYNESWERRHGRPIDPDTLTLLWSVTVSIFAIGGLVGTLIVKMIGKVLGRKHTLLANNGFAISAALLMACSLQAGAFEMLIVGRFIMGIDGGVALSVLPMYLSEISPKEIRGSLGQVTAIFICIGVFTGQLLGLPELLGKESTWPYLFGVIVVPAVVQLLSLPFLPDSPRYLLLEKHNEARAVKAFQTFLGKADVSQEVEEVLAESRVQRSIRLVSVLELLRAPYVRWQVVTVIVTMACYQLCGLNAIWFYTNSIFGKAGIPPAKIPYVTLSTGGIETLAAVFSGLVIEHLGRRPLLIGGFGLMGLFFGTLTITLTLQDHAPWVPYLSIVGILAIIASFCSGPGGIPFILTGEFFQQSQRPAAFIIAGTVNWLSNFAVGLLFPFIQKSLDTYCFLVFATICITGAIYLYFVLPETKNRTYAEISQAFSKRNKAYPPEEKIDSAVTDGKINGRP
Test: GLUT9 functional assay: uric acid uptake in HEK293T cells, allantoin formation by MS/MS as proxy of GLUT9B inhibition
Format: cell-based
Conditions: HEK293T cells stably expressing GLUT9B and transiently A. oryzae uricase, uric acid 0.3 mM, 37° C.
Summary of the method: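 Inhibition of GLUT9B-mediated urate uptake read as reduced allantoin formation, measured by MS/MS against allantoin standards in HEK293T matrix with log-logistic fitting. Stable GLUT9B HEK293T cells carrying transfected A. oryzae uricase were incubated 15 or 60 min at 37° C with uric acid at Km (0.3 mM), pH 7.4 gluconate buffer.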

[1] = 15 minute assay, read-out: 15 min IC50
[2] = 60 minute assay, read-out: 60 min IC50

**Q.** O=C(O)C1CCN(c2nc(CCCC(F)F)cnc2-c2ccc3occc3c2)CC1 [Compound 142, 1-(3-(benzofuran-5-yl)-6-(4,4-difluorobutyl)pyrazin-2-yl)piperidine-4-carboxylic acid] was tested. Which IC50 [1] did it give?
**A.** < 500 nM

**Q.** What about the IC50 [2] of the same molecule?
**A.** < 500 nM

**Q.** COCCOc1ncc(-c2ncc(CCC(F)(F)F)nc2N2CCC(C(=O)O)CC2)cc1F [Compound 98, 1-(3-(5-fluoro-6-(2-methoxyethoxy)pyridin-3-yl)-6-(3,3,3-trifluoropropyl)pyrazin-2-yl)piperidine-4-carboxylic acid] was tested. Which IC50 [1] did it give?
**A.** > 2000 nM

**Q.** With COCCCc1cnc(-c2cc(F)c3c(c2)OCO3)c(N2CCC(C(=O)O)CC2)c1 [Compound 169, 1-(2-(7-fluorobenzo[d][1,3]dioxol-5-yl)-5-(3-methoxypropyl)pyridin-3-yl)piperidine-4-carboxylic acid] as the molecule, how does the IC50 [1] read?
**A.** < 500 nM

**Q.** How did the IC50 [2] turn out when COCCCc1cnc(-c2ccnc3cc(OC)ccc23)c(N2CCC(C(=O)O)CC2)n1 [Compound 221, 1-(6-(3-methoxypropyl)-3-(7-methoxyquinolin-4-yl)pyrazin-2-yl)piperidine-4-carboxylic acid] was run?
**A.** > 2000 nM

**Q.** How did the IC50 [1] turn out when CCCCc1cnc(-c2ccc(OCCOC(F)(F)F)cc2)c(N2CCC(C(=O)O)CC2)n1 [Compound 42, 1-(6-butyl-3-(4-(2-(trifluoromethoxy)ethoxy)phenyl)pyrazin-2-yl)piperidine-4-carboxylic acid] was run?
**A.** > 2000 nM

**Q.** With COCCCc1cnc(-c2ccc(SC)cc2)c(N2CCC(C(=O)O)CC2)n1 [Compound 254, 1-(6-(3-methoxypropyl)-3-(4-(methylthio)phenyl)pyrazin-2-yl)piperidine-4-carboxylic acid] as the molecule, how does the IC50 [2] read?
**A.** < 500 nM

**Q.** With O=C(O)C1CCN(c2nc(CCC(F)(F)F)cnc2-c2ccc3occc3c2)CC1 [Compound 121, 1-(3-(benzofuran-5-yl)-6-(3,3,3-trifluoropropyl)pyrazin-2-yl)piperidin-4-carboxylic acid] as the molecule, how does the IC50 [1] read?
**A.** < 500 nM

**Q.** Which IC50 [1] does the source give for CN(C)S(=O)(=O)NC(=O)C1CCN(c2nc(COCC(F)(F)F)cnc2-c2cc(F)c3occc3c2)CC1 [Compound 80, N-(N,N-dimethylsulfamoyl)-1-(3-(7-fluorobenzofuran-5-yl)-6-((2,2,2-trifluoroethoxy)methyl)pyrazin-2-yl)piperidine-4-carboxamide] here?
**A.** 500 to 2000 nM

**Q.** How did the IC50 [1] turn out when CCCCc1cnc(-c2ccc(OCCN(C)C)cc2)c(N2CCC(C(=O)O)CC2)n1 [Compound 6, 1-(6-Butyl-3-(4-(2-(Dimethylamino)Ethoxy)Phenyl)Pyrazin-2-yl)piperidine-4-carboxylic acid] was run?
**A.** > 2000 nM

**Q.** With COCCCc1cnc(-c2cnc3nn(C)cc3c2)c(N2CCC(C(=O)O)CC2)n1 [Compound 218, 1-(6-(3-methoxypropyl)-3-(2-methyl-2H-pyrazolo[3,4-b]pyridin-5-yl)pyrazin-2-yl)piperidine-4-carboxylic acid] as the molecule, how does the IC50 [2] read?
**A.** > 2000 nM

**Q.** With COCCOc1ccc(-c2ncc(CCS(C)(=O)=O)nc2N2CCC(C(=O)O)CC2)cc1 [Compound 85, 1-(3-(4-(2-methoxyethoxy)phenyl)-6-(2-(methylsulfonyl)ethyl)pyrazin-2-yl)piperidine-4-carboxylic acid] as the molecule, how does the IC50 [1] read?
**A.** > 2000 nM

**Q.** How did the IC50 [1] turn out when O=C(O)C1CCN(c2nc(COCC(F)(F)F)cnc2-c2ccc(OCC3CC3)cc2)CC1 [Compound 77, 1-(3-(4-(cyclopropylmethoxy)phenyl)-6-((2,2,2-trifluoroethoxy)methyl)pyrazin-2-yl)piperidine-4-carboxylic acid] was run?
**A.** > 2000 nM

**Q.** How did the IC50 [1] turn out when O=C(O)C1CC2(CCN(c3nc(CCC(F)(F)F)cnc3-c3cc(F)c4occc4c3)CC2)C1 [Compound 95, 7-(3-(7-fluorobenzofuran-5-yl)-6-(3,3,3-trifluoropropyl)pyrazin-2-yl)-7-azaspiro[3.5]nonane-2-carboxylic acid] was run?
**A.** < 500 nM

**Q.** CCCCc1cnc(-c2cc(F)c3c(c2)OCO3)c(N2CCC(C(=O)O)CC2)n1 [Compound 46, 1-(6-butyl-3-(7-fluorobenzo[d][1,3]dioxol-5-yl)pyrazin-2-yl)piperidine-4-carboxylic acid] was tested. Which IC50 [1] did it give?
**A.** < 500 nM

**Q.** With CCCCc1cnc(-c2ccc(S(C)(=O)=O)cc2)c(N2CCC(C(=O)O)CC2)n1 [Compound 7, 1-(6-Butyl-3-(4-(Methylsulfonyl)Phenyl)Pyrazin-2-yl)Piperidine-4-carboxylic acid] as the molecule, how does the IC50 [1] read?
**A.** 500 to 2000 nM

**Q.** For CCCCc1cnc(-c2ccc(OC)cc2)c(N2CCC(c3nn[nH]n3)CC2)n1 [Compound 16, 3-(4-(2H-Tetrazol-5-yl)Piperidin-1-yl)-5-Butyl-2-(4-methoxyphenyl)pyrazine], which IC50 [1] is on record?
**A.** < 500 nM

**Q.** How did the IC50 [1] turn out when O=C(O)C1CCN(c2nc(CCCC(F)(F)F)cnc2-c2ccc3c(c2)OC(F)(F)O3)CC1 [Compound 160, 1-(3-(2,2-difluorobenzo[d][1,3]dioxol-5-yl)-6-(4,4,4-trifluorobutyl)pyrazin-2-yl)piperidine-4-carboxylic acid] was run?
**A.** 500 to 2000 nM

**Q.** COCCCc1cnc(-c2ccc3c(c2)OCO3)c(N2CC3(CC(C(=O)O)CO3)C2)c1 (stereo not shown) [Compound 249, 2-(2-(benzo[d][1,3]dioxol-5-yl)-5-(3-methoxypropyl)pyridin-3-yl)-5-oxa-2-azaspiro[3.4]octane-7-carboxylic acid] was tested. Which IC50 [2] did it give?
**A.** > 2000 nM

**Q.** Which IC50 [1] does the source give for O=C(O)C1CCN(c2nc(CCCC(F)(F)F)cnc2-c2ccc(OC(F)(F)F)cc2)CC1 [Compound 157, 1-(6-(4,4,4-trifluorobutyl)-3-(4-(trifluoromethoxy)phenyl)pyrazin-2-yl)piperidine-4-carboxylic acid] here?
**A.** < 500 nM

**Q.** With COCCOc1ccc(-c2ncc(CC(COC)COC)nc2N2CCC(C(=O)O)CC2)cc1 [Compound 155, 1-(6-(3-methoxy-2-(methoxymethyl)propyl)-3-(4-(2-methoxyethoxy)phenyl)pyrazin-2-yl)piperidine-4-carboxylic acid] as the molecule, how does the IC50 [1] read?
**A.** > 2000 nM

**Q.** What does the source list for COCCCc1cnc(-c2cnc3occc3c2)c(N2CCC(C(=O)O)CC2)c1 [Compound 170, 1-(2-(Furo[2,3-b]Pyridin-5-yl)-5-(3-Methoxypropyl)Pyridin-3-yl)piperidine-4-carboxylic acid]?
**A.** IC50 [1]: 500 to 2000 nM; IC50 [2]: > 2000 nM

**Q.** How did the IC50 [1] turn out when CCCCc1cnc(-c2ccc(OC)cc2)c(N2CCC(CCC(=O)O)CC2)n1 [Compound 48, 3-(1-(6-butyl-3-(4-methoxyphenyl)pyrazin-2-yl)piperidin-4-yl)propanoic acid] was run?
**A.** < 500 nM

**Q.** Which IC50 [1] does the source give for CCCCc1cnc(-c2ccc(OC)cc2)c(N2CCC(C)(C(=O)O)CC2)n1 [Compound 14, 1-(6-Butyl-3-(4-Methoxyphenyl)Pyrazin-2-yl)-4-Methylpiperidine-4-carboxylic acid] here?
**A.** < 500 nM

**Q.** For O=C(O)c1c[nH]c2cc(-c3cc(CCC(F)(F)F)cnc3-c3cc(F)c4occc4c3)ccc12 [Compound 63, 6-(2-(7-fluorobenzofuran-5-yl)-5-(3,3,3-trifluoropropyl)pyridin-3-yl)-1H-indole-3-carboxylic acid], which IC50 [1] is on record?
**A.** 500 to 2000 nM

**Q.** COCCCc1cnc(-c2ccc3nn(C)cc3c2)c(N2CCC(C(=O)O)CC2)n1 [Compound 198, 1-(6-(3-methoxypropyl)-3-(2-methyl-2H-indazol-5-yl)pyrazin-2-yl)piperidine-4-carboxylic acid] was tested. Which IC50 [2] did it give?
**A.** > 2000 nM

**Q.** Which IC50 [1] does the source give for O=c1[nH]c(C2CCN(c3nc(COCC(F)(F)F)cnc3-c3cc(F)c4occc4c3)CC2)no1 [Compound 82, 3-(1-(3-(7-fluorobenzofuran-5-yl)-6-((2,2,2-trifluoroethoxy)methyl)pyrazin-2-yl)piperidin-4-yl)-1,2,4-oxadiazol-5(4H)-one] here?
**A.** < 500 nM

**Q.** With O=C(O)C1CCN(c2nc(CCCCC(F)(F)F)cnc2-c2ccc3occc3c2)CC1 [Compound 130, 1-(3-(benzofuran-5-yl)-6-(5,5,5-Trifluoropentyl)Pyrazin-2-yl)Piperidine-4-carboxylic acid] as the molecule, how does the IC50 [1] read?
**A.** < 500 nM

**Q.** With CCCCc1cnc(-c2ccc(OC)cc2)c(-c2ccc3c(c2)COC3=O)n1 [Compound 35, 5-(6-butyl-3-(4-methoxyphenyl)pyrazin-2-yl)isobenzofuran-1(3H)-one] as the molecule, how does the IC50 [1] read?
**A.** 500 to 2000 nM

**Q.** How did the IC50 [1] turn out when O=C(O)C1(O)CCN(c2nc(CCCC(F)(F)F)cnc2-c2ccc3c(c2)OCO3)CC1 [Compound 166, 1-(3-(benzo[d][1,3]dioxol-5-yl)-6-(4,4,4-trifluorobutyl)pyrazin-2-yl)-4-hydroxypiperidine-4-carboxylic acid] was run?
**A.** 500 to 2000 nM

**Q.** COCCCc1cnc(-c2ccc3occ(Cl)c3c2)c(N2CCC(C(=O)O)CC2)n1 [Compound 253, 1-(3-(3-chlorobenzofuran-5-yl)-6-(3-methoxypropyl)pyrazin-2-yl)piperidine-4-carboxylic acid] was tested. Which IC50 [2] did it give?
**A.** < 500 nM

**Q.** Which IC50 [1] does the source give for O=C(O)C1CCN(c2nc(CCCC(F)(F)F)cnc2-c2cc(F)c3occc3c2)CC1 [Compound 129, 1-(3-(7-fluorobenzofuran-5-yl)-6-(4,4,4-trifluorobutyl)pyrazin-2-yl)piperidine-4-carboxylic acid] here?
**A.** < 500 nM

**Q.** Which IC50 [2] does the source give for COCCCc1cnc(-c2cc3sccc3s2)c(N2CCC(C(=O)O)CC2)n1 [Compound 203, 1-(6-(3-methoxypropyl)-3-(thieno[3,2-b]thiophen-2-yl)pyrazin-2-yl)piperidine-4-carboxylic acid] here?
**A.** > 2000 nM
